Our source for the mortality and pest or weed control values is patent US20110224079A1, “SPIROHETEROCYCLIC N-OXYAMIDES AS PESTICIDES” (SYNGENTA CROP PROTECTION LLC, priority 2008, published 2011).

Experiment [1] deals with Myzus persicae (green peach aphid). The experiment can be described thus: Example B17: activity against Myzus persicae on sprayed pepper plants (feeding/residual contact). Particulars: 144 h, infested pepper plants sprayed, 6 days. The class given is in vivo.
Experiment [2] deals with Aphis Craccivora (cowpea aphid). The experiment is described as follows: Example B9: activity against Aphis craccivora, sprayed pea seedlings (contact/feeding). The class given is in vivo. The note with it: 144 h, infested pea seedlings sprayed, 6 days. From the text: (§1) Activity Against Aphis Craccivora (Cowpea Aphid)
(Mixed Population, Contact/Feeding)
6 days after treatment, samples are checked for mortality.

Experiment [3] has as its system Myzus persicae (green peach aphid). The experiment can be described thus: Example B2: activity against Myzus persicae, pea seedling roots in test solution (systemic/feeding, curative). The note with it: 144 h, read-out: activity (mortality).
Experiment [4] has the same test system. The experiment can be described thus: Example B13: drench activity against Myzus persicae, pea seedlings in field soil. The note with it: 168 h, read-out: drench activity (mortality).
Experiment [5] shares this test system. The experiment can be described thus: Example B1: activity against Myzus persicae, sprayed sunflower leaf discs (feeding/residual contact, preventive). Particulars: foliar, 144 h, read-out: activity (mortality).
In experiment [6] the test system is Aphis Craccivora (cowpea aphid). The experiment can be described thus: Example B11: translaminar activity against Aphis craccivora on French bean leaves. The class given is in vivo. The note with it: 120 h, upper leaf side painted, aphids on lower side, 5 days. Here is the method:
Translaminar Activity Against Aphis Craccivora (Cowpea Aphid)
French bean leaves (Phaseolus vulgaris) are infested with about 20 mixed age individuals on the lower leaf side using clip cages. 1 day after the infestation, the upper side of the leaves is treated with the test solution by painting. 5 days later, samples are checked for mortality.

The test system is the same in experiment [7]. The experiment is described as follows: Example B10: activity against Aphis craccivora, pea seedling roots in test solution (systemic/feeding). The class given is in vivo. Particulars: 144 h, roots of infested pea seedlings in test solution, 6 days.
From the text: as §1
(Mixed Population, Systemic/Feeding)

Experiment [8] concerns Nilaparvata lugens (brown rice planthopper). The experiment can be described thus: Example B8: activity against Nilaparvata lugens, sprayed rice seedlings (larvicide, feeding/contact). Particulars: in Oryza sativa, read-out: activity (mortality, growth regulation, effects on F1 generation).
In experiment [9] the test system is Frankliniella occidentalis (western flower thrips). The experiment is described as follows: Example B6: activity against Frankliniella occidentalis, bean leaf discs or bean plants. The class given is in vivo. Particulars: foliar, 6 days (leaf discs) or 14 days (plants) after infestation, read-out: activity (reduction of treated population). The method, then: Activity Against Frankliniella occidentalis (Western Flower Thrips)
Bean leaf discs on agar in petri dishes or bean plants in a spray chamber are treated with diluted test solutions. After drying leaf discs are cut and placed in plastic cups on the surface of an agar layer and infested with mixed population. 6 days (leaf discs) or 14 days (plants) after the infestation, samples are checked for reduction of treated population and compared to the non treated population.

Experiment [10] deals with Bemisia tabaci (tobacco white fly). The experiment can be described thus: Example B7: activity against Bemisia tabaci, sprayed bean plants (larvicide, contact/feeding). The class given is in vivo. The note with it: 504 h, bean plants with N-2 nymphs sprayed, three weeks, read-out: activity (efficacy, number of emerged adults). Here is the method:
Activity Against Bemisia tabaci (Tobacco White Fly)
(Larvicide, Contact/Feeding)
Bean plants are infested with 20-30 adults that were removed after a 4 day egg-laying period. After another 7 days, bean plants with hatched nymphs (N-2) are treated (2 replicates) with the test solutions in a spray chamber. Three weeks later, samples are checked for number of emerged adults. Efficacy was calculated by comparing number of emerged adults in treated and non treated samples.

Experiment [11] has as its system Tetranychus urticae (two-spotted spider mite). The experiment can be described thus: Example B4: activity against Tetranychus urticae, sprayed bean leaf discs (feeding/residual contact, preventive). The note with it: foliar, 192 h, read-out: activity (egg, larval and adult mortality).
In experiment [12] the test system is Thrips tabaci (onion thrips). The experiment is described as follows: Example B3: activity against Thrips tabaci, sprayed sunflower leaf discs (feeding/residual contact, preventive). The class given is in vivo. Particulars: foliar, 144 h, mixed population, 6 days. From the text: Activity Against Thrips tabaci (Onion Thrips)
(Mixed Population, Feeding/Residual Contact Activity, Preventive)

Molecules are shown by their SMILES.

As for `CCOC(=O)OC1=C(c2cc(C)ccc2C)C(=O)N(OC)C12CCN(OC)CC2` [P1.1], the mortality at 200 ppm in experiment [1] was no less than 80%. Besides, the mortality at 400 ppm in experiment [2], in [3], in experiment [5], in [6], in experiment [7] and in experiment [8] was greater than 80% throughout. For the same compound, the mortality at 25 ppm in experiment [4] is greater than 80%.
As for `CCOC(=O)OC1=C(c2cc(C)ccc2C)C(=O)N(OCCOC)C12CCN(OC)CC2` [P1.3], in experiment [1], the mortality at 200 ppm is no less than 80%. The mortality at 400 ppm in [2], in experiment [3], in [5], in experiment [6], in [7] and in experiment [8] was greater than 80% in each case. Moreover, the mortality at 25 ppm in [4] is greater than 80%.
Regarding `CCOC(=O)OC1=C(c2c(C)cc(C)cc2C)C(=O)N(OC2CCCCO2)C12CCN(OC)CC2` (stereo not shown) [P1.10], the mortality at 200 ppm in experiment [1] is no less than 80%. In addition, in experiment [9], the pest or weed control at 400 ppm is greater than 80%. The mortality at 400 ppm in experiment [3], in experiment [5], in experiment [11], in experiment [6], in experiment [7] and in experiment [8] was greater than 80% each time. The pest or weed control at 200 ppm in experiment [10] was greater than 80%. The mortality at 25 ppm in experiment [4] was greater than 80%.
`CCOC(=O)OC1=C(c2c(C)cc(C)cc2C)C(=O)N(OC(C)C)C12CCN(OC)CC2` [P1.14] returned a mortality at 200 ppm in experiment [1] of no less than 80%. Further, the pest or weed control at 400 ppm in experiment [9] was greater than 80%. The mortality at 400 ppm in [3] and in [6] was greater than 80% in each case.
`CCOC(=O)OC1=C(c2c(C)cc(C)cc2C)C(=O)N(OCC2CC2)C12CCN(OC)CC2` [P1.18] displayed a mortality at 200 ppm in experiment [1] of no less than 80%. Besides, in experiment [9], the pest or weed control at 400 ppm was greater than 80%. Further, the mortality at 400 ppm in experiment [3], in experiment [5], in experiment [11], in experiment [6] and in experiment [8] was greater than 80% each time. In addition, the pest or weed control at 200 ppm in [10] is greater than 80%. The mortality at 25 ppm in [4] was greater than 80%.
With `CCOC(=O)OC1=C(c2c(C)cc(C)cc2C)C(=O)N(OCC2CCCCO2)C12CCN(OC)CC2` (stereo not shown) [P1.26], in [1], the mortality at 200 ppm was no less than 80%. Also, the mortality at 400 ppm in experiment [2], in experiment [3], in [5], in [11], in experiment [6] and in experiment [7] was greater than 80% each time. In addition, the mortality at 400 ppm in experiment [8] is greater than 80%. Also, the mortality at 25 ppm in experiment [4] was greater than 80%.
In experiment [1], `CCOC(=O)OC1=C(c2c(C)cc(C)cc2C)C(=O)N(OC2CCC2)C12CCN(OC)CC2` [P1.45] came in with a mortality at 200 ppm of no less than 80%. Further, the pest or weed control at 400 ppm in experiment [9] was greater than 80%. Further, the mortality at 400 ppm in experiment [3], in [5], in [11], in [6] and in [8] was greater than 80% in each case.
For `CCOC(=O)OC1=C(c2ccc(C)cc2C)C(=O)N(OC)C12CCN(OC)CC2` [P1.48], in [1], the mortality at 200 ppm is no less than 80%. Moreover, the mortality at 400 ppm in experiment [2], in experiment [3], in [5], in experiment [11], in experiment [6] and in experiment [8] was greater than 80% in each case. For the same compound, the pest or weed control at 200 ppm in experiment [10] was greater than 80%. In addition, the mortality at 25 ppm in [4] is greater than 80%.
Take `CCOCON1C(=O)C(c2ccc(C)cc2C)=C(OC(=O)OCC)C12CCN(OC)CC2` [P1.49]: the mortality at 400 ppm in [3], in experiment [5], in experiment [11], in experiment [6], in experiment [8] and in [12] was greater than 80% throughout. Further, the mortality at 25 ppm in experiment [4] is greater than 80%.
In experiment [1], `CCOCON1C(=O)C(c2c(C)cc(C)cc2C)=C(O)C12CCN(OC)CC2` [P2.10] had a mortality at 200 ppm of no less than 80%. Moreover, in experiment [9], the pest or weed control at 400 ppm was greater than 80%. In addition, the mortality at 400 ppm in experiment [3], in experiment [5], in experiment [6], in experiment [7], in [8] and in experiment [12] was greater than 80% in each case.
The compound `CON1CCC2(CC1)C(O)=C(c1c(C)cc(C)cc1C)C(=O)N2OC(C)C` [P2.11] yielded a mortality at 200 ppm in experiment [1] of no less than 80%. The pest or weed control at 400 ppm in experiment [9] is greater than 80%. The mortality at 400 ppm in experiment [3] and in [11] was greater than 80% each time. Moreover, in [4], the mortality at 25 ppm is greater than 80%.
`C=CCON1C(=O)C(c2c(C)cc(C)cc2C)=C(O)C12CCN(OC)CC2` [P2.12] had a mortality at 200 ppm in experiment [1] of no less than 80%. The pest or weed control at 400 ppm in experiment [9] is greater than 80%. Besides, the mortality at 400 ppm in experiment [3], in experiment [5], in experiment [11] and in experiment [6] was greater than 80% in each case. Further, in experiment [10], the pest or weed control at 200 ppm was greater than 80%. Further, the mortality at 25 ppm in experiment [4] is greater than 80%.
Turning to `COCCOCON1C(=O)C(c2c(C)cc(C)cc2C)=C(O)C12CCN(OC)CC2` [P2.24], the mortality at 200 ppm in [1] was no less than 80%. Besides, the mortality at 400 ppm in experiment [2], in experiment [3], in [5], in [11], in [6] and in experiment [7] was greater than 80% in each case. For the same compound, the mortality at 400 ppm in experiment [8] is greater than 80%. The mortality at 25 ppm in experiment [4] is greater than 80%.
Regarding `CON1CCC2(CC1)C(O)=C(c1c(C)cc(C)cc1C)C(=O)N2OC1CCC1` [P2.30], in experiment [1], the mortality at 200 ppm is no less than 80%. Besides, the pest or weed control at 400 ppm in [9] was greater than 80%. Further, the mortality at 400 ppm in experiment [3], in experiment [5], in experiment [11] and in experiment [6] was greater than 80% each time. Besides, in [4], the mortality at 25 ppm is greater than 80%.
For `COCON1C(=O)C(c2c(C)ccc(C)c2C)=C(O)C12CCN(OC)CC2` [P2.54], the mortality at 200 ppm in experiment [1] was no less than 80%. Also, the pest or weed control at 400 ppm in [9] was greater than 80%. The mortality at 400 ppm in experiment [3], in [5], in experiment [6] and in experiment [7] was greater than 80% throughout. For the same compound, the mortality at 25 ppm in experiment [4] was greater than 80%.
As for `CON1CCC2(CC1)C(O)=C(c1c(C)cc(C)cc1Cl)C(=O)N2OC` [P2.55], the pest or weed control at 400 ppm in [9] was greater than 80%. Besides, the mortality at 400 ppm in experiment [3], in experiment [5], in [11], in [6], in experiment [7] and in experiment [8] was greater than 80% throughout. Moreover, the mortality at 25 ppm in experiment [4] is greater than 80%.
`CON1CCC2(CC1)C(O)=C(c1c(C)cc(C)cc1Br)C(=O)N2OC` [P2.56]: the pest or weed control at 400 ppm in experiment [9] is greater than 80%. For the same compound, the mortality at 400 ppm in [3], in experiment [5], in [11], in [6] and in experiment [7] was greater than 80% each time. Further, in experiment [4], the mortality at 25 ppm is greater than 80%.
